Experimental data reported in publication PMC11623267, “Inhibitors of malaria parasite cyclic nucleotide phosphodiesterases block asexual blood-stage development and mosquito transmission” (Science Advances, 2024).
pEC50, pIC50: −log10 of the molar value. Read-outs that look alike come from different tables or passages of the source.

Assays:
P. falciparum 3D7 = test: Ex vivo 72-hour SYBR Green assay, 3D7 control (Uganda); assay type: cell-based, Plasmodium falciparum; conditions: Ugandan ex vivo assay control; read-out: EC50 lab strain 3D7
Experimental: Samples were delivered to the adjacent IDRC laboratory at Tororo District Hospital or transported by car from Masafu Hospital on the day of collection for storage of blood spots on filter paper (for isolation of nucleic acids) and initiation of ex vivo culture of malaria parasites. […] Before assay, 10 mM antimalarial stock compounds were diluted as necessary in DMSO and stored at −20°C. […] Compounds were serially diluted threefold in a 96-well assay plate in complete medium to a final volume of 50 μl, in columns 1 to 10, with concentrations optimized to capture full dose-response curves. Column 11 contained compound-free controls, while column 12 contained uninfected human RBC controls. Parasite culture (150 μl) was added to columns 1 to 11 of the assay plate with a final volume of 200 μl per well, 0.2% parasitemia, and 2% hematocrit. […] Thawed plates were incubated with SYBR Green lysis buffer for 1 hour in the dark as previously reported ([62]). Fluorescence was quantified using a BMG Fluostar Optima plate reader at an excitation of 485 nm and an emission of 530 nm, and data were plotted using GraphPad Prism 7. The data were curve fit with a variable slope function to estimate IC50 values. For each isolate, a Z′ factor to assess assay quality was calculated from positive controls (eight drug-free wells) and negative controls (eight parasite-free, red cell control wells). Z′ values over 0.5 were considered good assays, but each curve was also examined by eye for suitability. Some assays with Z′ below 0.5 may be considered valid depending on factors such as the SE of the curve-fit IC50.

[1] = test system: P. falciparum NF54-HGL stage V gametocytes fed to A. stephensi mosquitoes; test: SMFA dose response (luminescence); assay type: in vivo, Plasmodium falciparum
Experimental: Compounds were diluted in DMSO and then in culture medium (RPMI 1640 supplemented with 367 μM hypoxanthine, 25 mM Hepes, 25 mM sodium bicarbonate, and 10% human type A serum) to achieve a final DMSO concentration of 0.1%. Compounds were incubated with stage V gametocytes from the P. falciparum NF54-HGL reporter strain ([60]) for 48 hours at 37°C in Eppendorf tubes. Subsequently, parasites were pelleted by centrifugation (20 s at 20,000g) and resuspended in human type A serum containing diluted compound (final DMSO concentration of 0.1%) and human type O RBCs to achieve a hematocrit of 50%. This blood meal was then fed to 3- to 5-day-old A. stephensi mosquitoes [Sind-Kasur Nijmegen strain ([61])] for 10 min. Following feeding, unfed mosquitoes were removed, and mosquitoes were maintained at 26°C and 70 to 80% relative humidity. Eight days after feeding, oocyst intensity and prevalence were assessed by luminescence measurement of individual mosquitoes as described ([60]). All conditions were tested in duplicate, and for each replicate, a total of 24 mosquitoes were analyzed. IC50 values were estimated by fitting a four-parameter Hill model to the data using least squares to find the best fit. Controls included vehicle (0.1% DMSO) and 10 μM DHA.

HepG2 cells = test: HepG2 cytotoxicity; assay type: cell-based
Text: Table 1. Key activity data for the three main chemical subseries against ABS parasites, parasite fractions, and HepG2 cells. ND, not determined; ×/÷ is the geometric mean with geometric SD. | column: HepG2 EC50 (nM) (selectivity index)

[2] = test system: P. falciparum (clone 3D7); test: Parasite reduction ratio (PRR) assay; assay type: cell-based, Plasmodium falciparum
Experimental: The in vitro killing profile of compounds was determined by monitoring the ability of parasites to recover following treatment with a compound of interest using a previously reported approach ([50]), which allowed calculation of the PRR ([51]). […] To quantify the number of viable parasites following treatment, four independent sets of threefold serial dilutions were performed on each sample, which were assayed for the presence or absence of parasites after 28 days using the LDH assay, and the number of viable parasites was determined by the number of wells showing growth. PRR and PCT99.9% were calculated as previously reported ([50]).

[3] = test system: P. falciparum Dd2-B2 lines selected under drug pressure; test: 72-hour flow cytometry EC50 assay, lines selected under drug pressure; assay type: cell-based, Plasmodium falciparum; conditions: for pEC50: Plasmodium falciparum

Row | SMILES | pEC50 (P. falciparum 3D7) | pIC50 ([1]; read-out: SMFA IC50 infection (transmission) prevalence, 48 hours incubation; oocysts 8 days after feeding) | pIC50 ([1]; read-out: SMFA IC50 infection (transmission) prevalence; 48 hours incubation; oocysts 8 days after feeding) | pIC50 ([1]; read-out: SMFA IC50 oocyst (transmission) intensity, 48 hours incubation; oocysts 8 days after feeding) | pIC50 ([1]; read-out: SMFA IC50 oocyst (transmission) intensity; 48 hours incubation; oocysts 8 days after feeding) | pEC50 (HepG2 cells; Homo sapiens, HepG2) | HepG2 selectivity index (HepG2 cells; value in brackets after HepG2 EC50) | Lag phase ([2]; 10× EC50, 3D7) [h] | Log PRR ([2]; 10× EC50, 3D7) | PCT99.9% (hours taken to kill 99.9% of the parasites) ([2]; 10× EC50, 3D7) [h] | Slope ([2]; 10× EC50, 3D7 killing profile) | Killing profile ([2]; 10× EC50, faster than pyrimethamine, slower than chloroquine) | pEC50 ([3]; DD2, read-out: EC50, line selected with SAL-0010003, Well A7) | pEC50 ([3]; DD2, read-out: EC50, line selected with SAL-0010003, Well E2) | pEC50 ([3]; DD2, read-out: EC50, line selected with SAL-0010003, Well F10) | Mean fold change in EC50 ([3]; selected lines vs Dd2-B2 parental line, ±SD) [fold] | EC50 shift, line selected with SAL-0010003, Well A7 ([3]; vs Dd2-B2) [fold] | EC50 shift, line selected with SAL-0010003, Well E2 ([3]; vs Dd2-B2) [fold] | EC50 shift, line selected with SAL-0010003, Well F10 ([3]; vs Dd2-B2) [fold]
1 | CC(C)c1[nH]nc2c(=O)[nH]c(Cc3ccccc3F)nc12 [SAL-0010042] | 6.88 |  |  |  |  |  |  |  |  |  |  |  |  |  |  |  |  |  | 
2 | CC(C)c1n[nH]c2c(=O)[nH]c(Cc3ccc(F)cc3F)nc12 [SAL-0010003] |  | 6.93 | 6.94 | 7.17 | 7.17 | < 4.60 | > 77 | 0 | 3.11 | 47.1 | −0.0647 ± 0.0047 | fast/moderate killing profile | 5.55 | 5.60 | 5.79 | 7.6 ± 2.0 | 9.2 | 8.3 | 5.3
